Activity calls are given as the source filed them. The calls are words filed in the database; no cut-off is given here.

For assay [1], the system named is Radical scavenging activity. The experiment in a line: Antioxidant activity assessed as DPPH-radical scavenging activity. It is filed as functional.
In assay [2] the test system is Ileum. The experiment in a line: Inhibition of prostaglandin E1-induced contraction in Hartley guinea pig ileum at 126 umol by modified Magnus assay. The assay is classed as functional, tissue-based. The note with it: Cavia porcellus.
Assay [3] deals with Ileum. The experiment in a line: Inhibition of prostaglandin E2-induced contraction in Hartley guinea pig ileum at 76 umol by modified Magnus assay. It is filed as functional, tissue-based. The note with it: Cavia porcellus.
Assay [4] deals with Ileum. The experiment in a line: Inhibition of prostaglandin E1-induced contraction in Hartley guinea pig ileum at 39 umol by modified Magnus assay. It is filed as functional, tissue-based. As to conditions: Cavia porcellus.
Assay [5] has as its system Ileum. The experiment in a line: Inhibition of prostaglandin E2-induced contraction in Hartley guinea pig ileum at 64 umol by modified Magnus assay. The assay is classed as functional, tissue-based. As to conditions: Cavia porcellus.
Assay [6] has as its system Ileum. Nature of the assay: Inhibition of prostaglandin E1-induced contraction in Hartley guinea pig ileum at 16 umol by modified Magnus assay. It is filed as functional, tissue-based. The note with it: Cavia porcellus.
Assay [7] has as its system Ileum. Nature of the assay: Inhibition of prostaglandin E2-induced contraction in Hartley guinea pig ileum at 48 umol by modified Magnus assay. It is filed as functional, tissue-based. As to conditions: Cavia porcellus.

As to `O=C(N[C@H](COC(=O)[C@H](Cc1ccccc1)NC(=O)c1ccccc1)Cc1ccccc1)c1ccccc1`, the result in assay [1] was inactive.
Take `C=CC(C)(O)CC(OC(C)=O)[C@]1(C)C2=C([C@H](OC(C)=O)C[C@@H]1C)[C@@](C)(COC(C)=O)C(=O)CC2` (stereo partly drawn): the outcome in assay [2] and in assay [3] was Active. Further, the result in assay [1] was inactive.
Take `CC1(C)CC[C@]2(C(=O)O)CC[C@]3(C)C(=CC[C@@H]4[C@@]5(C)C[C@@H](O)[C@H](O)C(C)(C)[C@@H]5CC[C@]43C)[C@@H]2C1`: the result in assay [4] and in assay [5] was Active. Also, the result in assay [1] was inactive.
Consider `C[C@@H]1CC(=O)[C@H]2C(C)(C)[C@@H](O)CC[C@]2(C)[C@@]12CC[C@@]1(CCOC1O)O2` (mixture of isomers), for which the outcome in assay [1] was inactive.
Turning to `C=C[C@]1(C)C=C2C(=O)C[C@H]3C(C)(C)[C@@H](O[C@@H]4O[C@H](CO)[C@@H](O)[C@H](O)[C@H]4O[C@@H]4O[C@H](CO[C@@H]5O[C@H](CO)[C@@H](O)[C@H](O)[C@H]5O)[C@@H](O)[C@H](O)[C@H]4O)CC[C@]3(C)[C@H]2CC1`, the result in assay [2] and in assay [3] was Active. Besides, the result in assay [1] was inactive.
In the case of `C=C[C@]1(C)C=C2C(=O)C[C@H]3C(C)(C)[C@@H](O[C@@H]4O[C@H](CO[C@@H]5O[C@H](CO)[C@@H](O)[C@H](O)[C@H]5O)[C@@H](O)[C@H](O)[C@H]4O[C@@H]4O[C@@H](C)[C@H](O)[C@@H](O)[C@H]4O)CC[C@]3(C)[C@H]2CC1`, the result in assay [4] and in assay [5] was Active. Moreover, the result in assay [1] was inactive.
As for `C=CC(C)(O)CC(O)[C@]1(C)C2=C([C@H](OC(C)=O)C[C@@H]1C)[C@@](C)(COC(C)=O)C(=O)CC2` (stereo partly drawn), the result in assay [1] was inactive.
As for `C=C[C@]1(C)C=C2C(=O)C[C@H]3C(C)(C)[C@@H](O[C@@H]4O[C@H](CO)[C@@H](O)[C@H](O)[C@H]4O[C@@H]4O[C@H](CO)[C@@H](O)[C@H](O)[C@H]4O)CC[C@]3(C)[C@H]2CC1`, the outcome in assay [6] and in assay [7] was Active. Moreover, the outcome in assay [1] was inactive.

These data come from ChEMBL document CHEMBL1142596, “Diterpenes from Leucas aspera inhibiting prostaglandin-induced contractions” (J Nat Prod, 2006).
